This passage reports Kd and IC50 results from patent US20120129842A1, “BISTHIAZOLE INHIBITORS OF PRO-MATRIX METALLOPROTEINASE ACTIVATION” (priority 2010, published 2012).

Broadly, the Kd is the constant that tells how readily two partners part at equilibrium. Read a high Kd as a looser complex. In general, IC50 refers to the concentration needed to halve the response being measured.

The target of test [1] is proMMP13(1-268) (SEQ ID NO:7) (Homo sapiens, UniProt P45452). The test is described as follows: ThermoFluor binding assay with proMMP13(1-268). Details: 6xHis (C); made in house. The following applies: pH 7.0. On the procedure: (§1) The ThermoFluor® (TF) assay is a 384-well plate-based binding assay that measures thermal stability of proteins (Biomol Screen 2001, 6, 429-40; Biochemistry 2005, 44, 5258-66). The experiments were carried out using instruments available from Johnson & Johnson Pharmaceutical Research & Development, LLC. TF dye used in all experiments was […] (1,8-ANS) (Invitrogen: A-47).
(§2) Compounds were arranged in a pre-dispensed plate (Greiner Bio-one: 781280), wherein compounds were serially diluted in 100% DMSO across 11 columns within a series. Columns 12 and 24 were used as DMSO reference and contained no compound. For multiple compound concentration-response experiments, the compound aliquots ([…]) were robotically predispensed directly into black 384-well polypropylene PCR microplates (Abgene: TF-0384/k) using a Cartesian Hummingbird liquid handler (DigiLab, Holliston, Mass.). Following compound dispense, protein and dye solutions were added to achieve the final assay volume of 3 μL. The assay solutions were overlayed with 1 μL of silicone oil (Fluka, type DC 200: 85411) to prevent evaporation.
(§3) Assay plates were robotically loaded onto a thermostatically controlled PCR-type thermal block and then heated from 40 to 90° C. at a ramp-rate of 1° C./min for all experiments. Fluorescence was measured by continuous illumination with UV light (Hamamatsu LC6) supplied via fiber optics and filtered through a band-pass filter (380-400 nm; >6 OD cutoff). Fluorescence emission of the entire 384-well plate was detected by measuring light intensity using a CCD camera (Sensys, Roper Scientific) filtered to detect 500±25 nm, resulting in simultaneous and independent readings of all 384 wells. A single image with 20-sec exposure time was collected at each temperature, and the sum of the pixel intensity in a given area of the assay plate was recorded vs temperature and fit to standard equations to yield the Tm (J Biomol Screen 2001, 6, 429-40).
(§4) Thermodynamic parameters necessary for fitting compound binding for each proMMP were estimated by differential scanning calorimetry (DSC) and from ThermoFluor® data. The heat capacity of unfolding for each protein was estimated from the molecular weight and from ThermoFluor® dosing data.
The proMMP13(1-268) (SEQ ID NO:7) protein sample preparations included a desalting buffer exchange step via a PD-10 gravity column (GE Healthcare). The desalting buffer exchange was performed prior to diluting the protein to the final assay concentration of 3.5 μM. The concentration of proMMP13(1-268) (SEQ ID NO:7) was estimated spectrophotometrically based on a calculated extinction coefficient of ε280=37000 M^−1cm^−1, a calculated molecular weight of 30.8 kDa, and calculated pI of 5.33. ThermoFluor® reference conditions were defined as follows: 100 μg/mL proMMP13(1-268) (SEQ ID NO:7), 25 μM 1,8-ANS, pH 7.0 Buffer (50 mM HEPES pH 7.0, 100 mM NaCl, 0.001% Tween-20, 2.5 mM MgCl2, 300 μM CaCl2). The thermodynamic parameters for proMMP13(1-268) (SEQ ID NO:7) are as follows: Tm (° C.)=67 (+/−0.1), ΔUH(Tm) (cal mol^−1)=107000(+/−5000), ΔUS(Tm) (cal mol^−1 K^−1)=318, ΔUCp (cal mol^−1 K^−1)=2600.

Test [2] has as its target T1, full-length proMMP9(1-707) (SEQ ID NO:1) (Homo sapiens, UniProt P14780, R574P).
T1 construct: made in house; host or cells: HEK293 (proMMP9, secreted); E. coli (MMP3)
Kind of test: proMMP9/MMP3 P126 Activation Assay. It counts as biochemical. The following applies: 20 nM proMMP9, 20 nM MMP3, 80 min 37° C. As to the method:
The reaction volume was 50 μL. […] Reactivity of residual MMP3 towards P-126 substrate was minimal under these conditions.

In test [3] the target is T2, proMMP9(20-445;ΔFnII) (SEQ ID NO:6) (Homo sapiens, UniProt P14780, DEL216-390).
T2 construct: start methionine (N); made in house; host or cells: E. coli BL21(DE3) RIL
T2 sequence (P14780 with tags, fused parts or gaps DEL216-390): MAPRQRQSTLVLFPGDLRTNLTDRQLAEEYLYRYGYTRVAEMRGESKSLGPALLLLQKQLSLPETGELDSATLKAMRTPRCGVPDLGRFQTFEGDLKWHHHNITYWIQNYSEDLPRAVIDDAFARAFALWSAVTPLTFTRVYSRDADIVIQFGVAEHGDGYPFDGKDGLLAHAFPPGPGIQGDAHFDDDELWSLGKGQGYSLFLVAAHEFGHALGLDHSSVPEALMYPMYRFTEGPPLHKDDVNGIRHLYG
The test is described as follows: ThermoFluor binding assay with proMMP9(20-445;ΔFnII). The settings on record: pH 7.0. On the procedure: as §1, §2, §3, §4
The protein sample preparations included a desalting buffer exchange step via a PD-10 gravity column (GE Healthcare). The desalting buffer exchange was performed prior to diluting the protein to the final assay concentration of 2.8 μM proMMP9(20-445;ΔFnII) (SEQ ID NO:6). The concentration of proMMP9(20-445;ΔFnII) (SEQ ID NO:6) was determined spectrophotometrically based on a calculated extinction coefficient of ε280=39880 M^−cm^−1, a calculated molecular weight of 28.2 kDa, and calculated pI of 5.5. ThermoFluor® reference conditions were define as follows: 80 μg/mL (2.8 μM) proMMP9(20-445;ΔFnII) (SEQ ID NO:6), 50 μM 1,8-ANS, pH 7.0 Buffer (50 mM HEPES pH 7.0, 100 mM NaCl, 0.001% Tween-20, 2.5 mM MgCl2, 300 μM CaCl2). The thermodynamic parameters for proMMP9(20-445;ΔFnII) (SEQ ID NO:6) are as follows: Tm (° C.)=72 (+/−0.1), ΔUH(Tm) (cal mol^−1)=160000(+/−5000), ΔUS(Tm) (cal mol^−1 K^−1)=434, ΔUCp (cal mol^−1 K^−)=2400.

For test [4], the target named is T3, proMMP9(67-444;ΔFnII) (SEQ ID NO:5) (Homo sapiens, UniProt P14780, DEL216-390).
T3 construct: start methionine (N); made in house; host or cells: E. coli BL21(DE3) RIL
T3 sequence (P14780 with tags, fused parts or gaps DEL216-390): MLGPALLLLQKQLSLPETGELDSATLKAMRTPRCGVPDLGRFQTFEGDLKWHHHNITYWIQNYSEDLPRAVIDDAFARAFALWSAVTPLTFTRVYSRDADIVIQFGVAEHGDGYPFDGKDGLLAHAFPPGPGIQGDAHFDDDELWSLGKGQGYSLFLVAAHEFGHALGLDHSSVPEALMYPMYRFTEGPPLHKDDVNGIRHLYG
The test is described as follows: ThermoFluor binding assay with proMMP9(67-444;ΔFnII). The settings on record: pH 7.0. As to the method:
as §1, §2, §3, §4
The protein sample preparations had to include a desalting buffer exchange step via a PD-10 gravity column (GE Healthcare). The desalting buffer exchange was performed prior to diluting the protein to the final assay concentration of 3.5 μM proMMP9(67-444;ΔFnII) (SEQ ID NO:5). The concentration of proMMP9(67-444;ΔFnII) (SEQ ID NO:5) was determined spectrophotometrically based on a calculated extinction coefficient of ε280=33900 M^−1cm^−1, a calculated molecular weight of 22.6 kDa, and calculated pI of 5.20. ThermoFluor® reference conditions were defined as follows: 80 μg/mL (3.5 μM) proMMP9(67-444;ΔFnII) (SEQ ID NO:5), 50 μM 1,8-ANS, pH 7.0 Buffer (50 mM HEPES pH 7.0, 100 mM NaCl, 0.001% Tween-20, 2.5 mM MgCl2, 300 μM CaCl2). The thermodynamic parameters for proMMP9(67-444;ΔFnII) (SEQ ID NO:5) are as follows: Tm (° C.)=63 (+/−0.1), ΔUH(Tm) (cal mol^−1)=105000(+/−5000), ΔUS(Tm) (cal mol^−1 K^−1)=[…], ΔUCp (cal mol^−1 K^−1)=2000.

Where a name gives a salt, the structure may show the parent alone. Where only a bound is given, the exact number is not on record here.

T1 sequence (P14780 20-707 R574P): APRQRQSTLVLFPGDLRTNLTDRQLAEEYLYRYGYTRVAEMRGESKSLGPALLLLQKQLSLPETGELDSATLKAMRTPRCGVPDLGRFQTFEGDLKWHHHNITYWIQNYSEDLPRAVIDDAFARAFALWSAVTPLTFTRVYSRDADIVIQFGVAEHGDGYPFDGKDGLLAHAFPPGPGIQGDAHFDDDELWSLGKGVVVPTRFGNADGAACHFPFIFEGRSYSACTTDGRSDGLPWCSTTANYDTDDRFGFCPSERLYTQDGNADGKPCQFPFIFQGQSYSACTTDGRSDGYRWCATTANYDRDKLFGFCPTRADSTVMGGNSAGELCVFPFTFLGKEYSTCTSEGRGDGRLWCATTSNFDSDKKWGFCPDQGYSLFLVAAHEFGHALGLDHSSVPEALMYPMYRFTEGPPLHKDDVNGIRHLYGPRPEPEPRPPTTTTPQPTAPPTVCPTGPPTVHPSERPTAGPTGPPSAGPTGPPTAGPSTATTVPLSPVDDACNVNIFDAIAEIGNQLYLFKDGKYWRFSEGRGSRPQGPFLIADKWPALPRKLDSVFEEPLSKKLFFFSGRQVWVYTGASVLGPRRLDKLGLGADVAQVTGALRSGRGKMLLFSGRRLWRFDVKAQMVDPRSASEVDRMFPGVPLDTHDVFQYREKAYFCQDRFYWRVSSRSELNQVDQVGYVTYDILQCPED

In the case of `Cc1nc(C)c(-c2csc(Nc3cc(C(N)=O)ccc3OC(C)C)n2)s1` [Example 1, 3-(2′,4′-Dimethyl-[4,5′]bithiazolyl-2-ylamino)-4-isopropoxy-benzamide.HBr], the Kd in test [1] turned out to be 0.14 µM; in test [3], 0.026 µM; in test [4], 0.17 µM. The molecule also showed an IC50 in test [2] of 0.16 µM.

For `Cc1nc(N)sc1-c1csc(Nc2cc(C(N)=O)ccc2OC(C)C)n1` [Example 2, 3-(2′-Amino-4′-methyl-[4,5′]bithiazolyl-2-ylamino)-4-isopropoxy-benzamide.HBr], the Kd in test [1] was determined as 0.081 µM; in test [3], 0.021 µM; in test [4], 0.16 µM. For the same molecule, 0.16 µM corresponded to half-maximal inhibition in test [2] (IC50).

In the case of `CC(=O)Nc1nc(C)c(-c2csc(Nc3cc(C(N)=O)ccc3OC(C)C)n2)s1` [Example 3, 3-(2′-Acetylamino-4′-methyl-[4,5′]bithiazolyl-2-ylamino)-4-isopropoxy-benzamide.HBr], the figures for the Kd in test [1], in test [3] and in test [4] were 0.3 µM, 0.41 µM and 0.3 µM, respectively. In test [2], this molecule came in with an IC50 of 0.13 µM.

Take `Cc1nc(C)c(-c2nc(Nc3cc(C(N)=O)ccc3OC(C)C)sc2Br)s1` [Example 4, 3-(5-Bromo-2′,4′-dimethyl-[4,5′]bithiazolyl-2-ylamino)-4-isopropoxy-benzamide]: the Kd was found to be 3.2 µM in test [1], 1.2 µM in test [3] and 3.1 µM in test [4]. In addition, half-maximal inhibition in test [2] (IC50) was put at 9 µM.

Consider `CC(=O)Nc1nc(C)c(-c2csc(Nc3cccc4c3OCCO4)n2)s1` [Example 19, N-[2-(2,3-Dihydro-benzo[1,4]dioxin-5-ylamino)-4′-methyl-[4,5′]bithiazolyl-2′-yl]-acetamide], for which the Kd in test [1] came out at 62 µM; in test [3], 17 µM; in test [4] it was 11 µM.

With `CCN(CC)S(=O)(=O)c1ccc(OC)c(Nc2nc(-c3sc(N)nc3C)cs2)c1` [Example 21, 3-(2′-Amino-4′-methyl-[4,5′]bithiazolyl-2-ylamino)-N,N-diethyl-4-methoxy-benzenesulfonamide.HBr], the Kd in test [1] was determined as 1.7 µM; in test [3], 9.6 µM; in test [4], 2.9 µM.

Take `COc1ccc(-c2ccccc2)cc1Nc1nc(-c2sc(N)nc2C)cs1` [Example 23, N^2-(4-Methoxy-biphenyl-3-yl)-4′-methyl-[4,5′]bithiazolyl-2,2′-diamine.HBr]: the Kd is 0.98 µM in test [1], 12 µM in test [3] and 15 µM in test [4].

On to `COc1ccc(C)cc1Nc1nc(-c2sc(N)nc2C)cs1` [Example 24, N^2-(2-Methoxy-5-methyl-phenyl)-4′-methyl-[4,5′]bithiazolyl-2,2′-diamine.HBr], for which the Kd was determined as 25 µM in test [1], 8.6 µM in test [3] and 2.3 µM in test [4].

For the molecule `COc1ccc(C(=O)NCCN2CCCCC2)cc1Nc1nc(-c2sc(NC(C)=O)nc2C)cs1` [Example 58, 3-(2′-Acetylamino-4′-methyl-[4,5′]bithiazolyl-2-ylamino)-4-methoxy-N-(2-piperidin-1-yl-ethyl)-benzamide.TFA], the Kd in test [1] is > 95 µM; in test [3], 19 µM; in test [4] it was 6.5 µM.

`CNC(=O)c1ccc(OC)c(Nc2nc(-c3sc(NC(C)=O)nc3C)cs2)c1` [Example 65, 3-(2′-Acetylamino-4′-methyl-[4,5′]bithiazolyl-2-ylamino)-4-methoxy-N-methyl-benzamide.TFA]: the values for the Kd in test [1], in test [3] and in test [4] were 7.8 µM, 3 µM and 2.8 µM, respectively.

For `CCOc1ccc(-c2ncco2)cc1Nc1nc(-c2sc(NC(C)=O)nc2C)cs1` [Example 78, N-[2-(2-Ethoxy-5-oxazol-2-yl-phenylamino)-4′-methyl-[4,5′]bithiazolyl-2′-yl]-acetamide.TFA], the Kd in test [1] is 2.9 µM; in test [3], 15 µM; in test [4], 0.48 µM.

For `CCOC(=O)c1ccc(OCC)c(Nc2nc(-c3sc(C)nc3C)cs2)c1` [Example 82, 3-(2′,4′-Dimethyl-[4,5′]bithiazolyl-2-ylamino)-4-ethoxy-benzoic acid ethyl ester.HBr], the Kd was 13 µM in test [1], 15 µM in test [3] and 3.5 µM in test [4].

Regarding `COc1ccc(C(N)=O)cc1Nc1nc(-c2sc(N3CCN(C)CC3)nc2C)cs1` [Example 93, 4-Methoxy-3-[4′-methyl-2′-(4-methyl-piperazin-1-yl)-[4,5′]bithiazolyl-2-ylamino]-benzamide.TFA], the results for the dissociation constant Kd in test [1], in test [3] and in test [4] were 16 µM, 0.74 µM and 2.5 µM, respectively.

On to `Cc1nc(C(=O)N2CCC(O)CC2)sc1-c1csc(Nc2cc(C(N)=O)ccc2OC(C)C)n1` [Example 105, 3-[2′-(4-Hydroxy-piperidine-1-carbonyl)-4′-methyl-[4,5′]bithiazolyl-2-ylamino]-4-isopropoxy-benzamide.TFA], for which the Kd in test [1] was 1.3 µM; in test [3] it was 0.24 µM; in test [4], 2.9 µM.
